{
  "source": "paper PMC4008261",
  "about": "“Rewiring of regenerated axons by combining treadmill training with semaphorin3A inhibition” (Molecular Brain, 2014)",
  "key": {"[1]": {"system": "Mediator release, IL-6", "test": "Pharmacological profile: mediator release", "format": "cell-based", "from_the_text": "Table 1 Pharmacological profile of SM-345431 (part 1) | column: IC50 (μm)"}, "[2]": {"system": "SCT adult rats", "test": "Lumbar spinal circuitry after SCT (c-Fos and synapsin-1 immunostaining)", "format": "in vivo, rat", "experimental": "(§1) Rats were randomly divided into the following three experimental groups: 1) untrained + placebo, 2) untrained + SM-345431 and 3) trained + SM-345431. SCT was performed, and SM-345431 or placebo was administered at the lesion site via the newly developed DDS, which is described in detail below. Starting 1 week post-injury, treadmill training commenced with a BSS. Kinematic tests were performed monthly for 3 months after SCT using a rodent robotic device (Rodent robot 3000, Robomedica Inc.) that primarily assessed the performance of plantar stepping on a treadmill. Treadmill training was continued throughout the experimental period.\nA total of 53 adult female Sprague-Dawley rats (200-250 g, 10-12 weeks old) were used in this study (3 rats died during the experimental period and were excluded from the statistical analysis). All procedures were approved by the experimental animal care committee of Keio University, School of Medicine and Murayama Medical Center (approval #12-8). All rats were anesthetized with an intraperitoneal injection of ketamine (100 mg/kg)/xylazine (10 mg/kg). The spinal cord at the level of the T10 lamina was exposed by T10 laminectomy, and the dorsal dura mater was opened. The exposed spinal cord was cut along the inner edge of the vertebra with a sharp micro-scissor. Two more cuts were made at the gap of the transected spinal cord by a scalpel to ensure total transection. SM-345431 or placebo was administered to the transected site via the newly developed DDS as described in detail below (Figure 1G-I). After these procedures, the back muscles and skin were closed. Rats were kept warm in an incubator (37°C) after surgery. To prevent dehydration in the rats, 10 ml of saline was subcutaneously injected daily until day 7. Ampicillin (0.4 g/kg) was also injected intramuscularly daily to prevent infection until day 7. The bladder was evacuated manually until autonomous emptying of the bladder was achieved. The re-transection procedure was performed at the same level as the primary SCT (15 rats total; 5 rats from each group). Kinematic data were recorded using similar procedures prior to re-transection surgery (on the same day) and on the day following re-transection surgery. For CST tracing, 10% BDA was injected as follows. Nine weeks after SM-345431 or placebo administration, BDA (10000 MW, Molecular Probes) was injected into six different sites of the sensorimotor cortices of the rats under general anesthesia (site 1: 2.0 mm lateral, 0 mm to bregma; site 2: 2.0 mm lateral, 2 mm posterior to bregma; site 3: 2.0 mm lateral, 4 mm posterior to bregma; site 4: 4 mm lateral, 0 mm to bregma; site 5: 4 mm lateral, 2 mm posterior to bregma and site 6: 4 mm lateral, 4 mm posterior to bregma). […]"}, "[3]": {"system": "SCT adult rats", "test": "Kinematic analysis of hindlimb motor performance on a treadmill", "format": "in vivo, rat", "experimental": "as §1\nA robotic device (rodent robot 3000, Robomedica Inc.) was used to train the SCT rats. Briefly, the device consisted of a computer-controlled BSS, two lightweight robotic arms and a treadmill with variable motorized speeds. The ankles of the hindlimbs of rats were held with a pair of releasable rope cuffs, which were then secured to robotic arms to track ankle trajectory in the horizontal and vertical directions. A computer-controlled body support arm was used to control the load that was applied to the hindlimbs and to maintain body equilibrium. Rats were secured in a cloth vest and attached to the body support arm with a hook-and-loop fabric. Hard rope cuffs were attached to the hindlimbs of rats with the robotic arm during training.\nAdditionally, improvements in motor performance were more obvious when the treadmill training was initiated at earlier time points after SCT. Therefore, training was initiated as early as 1 week after SCT. The fixed parameters were set at 50% body weight support (BWS), 20 min/day and 5 days/week. The animals were adapted to the training via increasing velocity; a velocity of 1 cm/s was used in the first week, and then the velocity was increased by 2 cm/s every 2 weeks for the first 2 months after injury (i.e., 1 cm/s to 3 cm/s to 5 cm/s). […] Once the rats dragged their hindlimbs and stopped walking on the treadmill, a trainer brought their bodies back to the original walking position. The step ability of SCT rats on the treadmill improved gradually over the course of the first 2 months following injury. However, this improvement was attenuated at time points later than 2 months after injury.\nTo evaluate the locomotor capability of SCT rats in detail, the aforementioned robotic device was employed. Each robotic arm tracked the two-dimensional movement of the ankle, and the trajectory of the ankle movement was then recorded on a computer for kinematic analyses. Not all the rats were able to walk by themselves on the treadmill by the last time point of the experiment. Therefore, when performing the tests, the degree of BWS and treadmill speed were titrated to obtain the maximum walking performance on the treadmill. As a result of this titration, the behavioral tests were performed at 70% BWS and a treadmill velocity of 1 cm/s each month after SCT. The duration of testing was 1 min per rat to minimize training effects during testing. The methods of previous reports were followed with slight adaptations. Briefly, the ankle trajectory in each plane was recorded by the robotic arm and a computer. Then, the toe off (TO) and paw contact (PC) events in each step cycle were identified using Rodent Robot 3000 software. All kinematic characteristics were obtained when TO and PC were identified; as a result, parameters such as the duration phase, the swing phase of the step cycle and the length and height of the step were calculated. The number of animals used in these behavioral tests was 32 (control: n = 9, SM-345431: n = 12, combined: n = 11)."}, "[4]": {"system": "SCT adult rats", "test": "Kinematic analysis before and after re-transection", "format": "in vivo, rat", "experimental": "A total of 53 adult female Sprague-Dawley rats (200-250 g, 10-12 weeks old) were used in this study (3 rats died during the experimental period and were excluded from the statistical analysis). All procedures were approved by the experimental animal care committee of Keio University, School of Medicine and Murayama Medical Center (approval #12-8). All rats were anesthetized with an intraperitoneal injection of ketamine (100 mg/kg)/xylazine (10 mg/kg). The spinal cord at the level of the T10 lamina was exposed by T10 laminectomy, and the dorsal dura mater was opened. The exposed spinal cord was cut along the inner edge of the vertebra with a sharp micro-scissor. […] Kinematic data were recorded using similar procedures prior to re-transection surgery (on the same day) and on the day following re-transection surgery. […]\nTo evaluate the locomotor capability of SCT rats in detail, the aforementioned robotic device was employed. Each robotic arm tracked the two-dimensional movement of the ankle, and the trajectory of the ankle movement was then recorded on a computer for kinematic analyses. […] Briefly, the ankle trajectory in each plane was recorded by the robotic arm and a computer. […] All kinematic characteristics were obtained when TO and PC were identified; as a result, parameters such as the duration phase, the swing phase of the step cycle and the length and height of the step were calculated. […]"}, "[5]": {"test": "Stability in a silicone sheet", "format": "physicochemical", "settings": "compared with SM-216289"}, "[6]": {"settings": "SM-345431 alone, 70% BWS, 1 cm/s"}},
  "note": "pIC50: −log10 of the molar value.",
  "data": [
    {"compound": "CC(=O)c1cc2c(=O)c3c(C(=O)O)c(O)c(O)cc3oc2c(C(C)=O)c1-c1coc2cc(O)c(O)c(C(=O)O)c2c1=O", "note": "[SM-345431, Vinaxanthone]", "values": [
      {"measurement": "pIC50", "setting": "[1]", "value": "< 5.00"},
      {"measurement": "number of c-Fos + nuclei versus control SCI rats", "setting": "[2]; SM-345431 alone, L1-L5 levels, not statistically significant", "value": "tended to be lower"},
      {"measurement": "synapsin-1 expression at the lumbar enlargement versus control SCT group", "setting": "[2]; SM-345431 alone, P > 0.05", "value": "No statistically significant difference"},
      {"measurement": "number of c-Fos + nuclei versus control SCT rats", "setting": "[2]; SM-345431 combined with treadmill training, L4 and L5 levels, P < 0.01", "value": "statistically significant decrease"},
      {"measurement": "synapsin-1 expression at the lumbar enlargement", "setting": "[2]; SM-345431 combined with treadmill training, P < 0.01 vs control SCT, P < 0.05 vs SM-345431 group", "value": "statistically significant increase"},
      {"measurement": "plantar step walking on a treadmill with the BSS", "setting": "[3]; SM-345431 alone, without extensive treadmill training", "value": "did not result in plantar step walking"},
      {"measurement": "effect on the step height parameter", "setting": "[3]; [6]", "value": "moderate and statistically insignificant"},
      {"measurement": "locomotor function on a treadmill, step length parameters (average and maximum)", "setting": "[3]; [6]", "value": "improved locomotor function"},
      {"measurement": "step cycle area versus control SCT rats", "setting": "[3]; SM-345431 alone, P < 0.05 at 3 months", "value": "statistically significant enhancement"},
      {"measurement": "effect on the step height parameter (average and maximum)", "setting": "[3]; SM-345431 combined with extensive treadmill training", "value": "greater enhancement was observed"},
      {"measurement": "duration of continuous plantar step walking on a treadmill with the BSS", "setting": "[3]; SM-345431 combined with extensive treadmill training, all rats", "value": "at least 30 min"},
      {"measurement": "step cycle area versus control SCT rats", "setting": "[3]; SM-345431 combined with treadmill training, P < 0.05 first month, P < 0.01 second and third month", "value": "even greater improvement"},
      {"measurement": "step cycle area after re-transection", "setting": "[4]; SM-345431 alone, re-transection 12 weeks after the initial injury", "value": "tended to be attenuated"},
      {"measurement": "step ability after re-transection", "setting": "[4]; SM-345431 combined with treadmill training, average step height P < 0.01, maximum step height P < 0.05", "value": "greater attenuations of step ability were observed"},
      {"measurement": "stability in a silicone sheet", "setting": "[5]", "value": "better stability in a silicone sheet than SM-216289"}
    ]}
  ]
}
